Among the data in PubChem BioAssay AID493128 (Sanford-Burnham Center for Chemical Genomics, 2011) are EC50 and IC50 (inhibition of IAP activity) values, retold here.

Active and inactive are the calls of the source. The rule behind the calls is not given here. A value given as a limit tells only on which side of the number the result lay.

The target of the assay is intestinal alkaline phosphatase Alpi (Mus musculus). Briefly: activation of murine Alpi phosphatase – biochemical, human IAP activator project, SAR follow-up (AID 493128). As to conditions: purified mouse IAP enzyme activity.

A word on the EC50: it is the concentration that produces a half-maximal response. Turning to `Cc1cc(C(=O)N/N=C/c2cc(Br)ccc2O)n[nH]1`, the EC50 is > 100 µM (inactive).
Same read-out and setting: under `O=C(N/N=C\c1cccc(O)c1)C(=O)N/N=C/c1cccc(O)c1` stands > 100 µM (inactive); under `COc1cc(/C=N\NC(=O)C(=O)N/N=C/c2cc(OC)c(O)c(OC)c2)cc(OC)c1O`, > 100 µM (inactive).
As to `O=C(N/N=C/c1c(O)ccc2ccccc12)C(=O)N/N=C/c1c(O)ccc2ccccc12`, the EC50 was > 100 µM (inactive).
Take `COc1ccc(-c2csc(Nc3cccc4ccccc34)n2)cc1F`: the EC50 was > 100 µM (inactive).
Still for that read-out and setting: under `N#CCOc1ccccc1/C=N/NC(=O)C(=O)N/N=C/c1ccccc1OCC#N` stands > 100 µM (inactive); under `O=C(N/N=C/c1cc(Br)ccc1O)C(=O)N/N=C/c1cc(Br)ccc1O`, > 100 µM (inactive).
On the same count and under the same terms, under `CC(=O)Nc1ccc(/C=N/NC(=O)C(=O)N/N=C/c2ccc(NC(C)=O)cc2)cc1` stands > 100 µM (inactive); under `O=C(N/N=C/c1ccc2c(c1)OCO2)C(=O)N/N=C/c1ccc2c(c1)OCO2`, > 100 µM (inactive); under `O=C(N/N=C/c1ccccc1C(=O)O)C(=O)N/N=C/c1ccccc1C(=O)O`, > 100 µM (inactive).
Same read-out and setting: under `COc1cccc(C=NNC(=O)C(=O)NN=Cc2cccc(OC)c2O)c1O` stands > 100 µM (inactive); under `COc1cc(OC)c(OC)cc1/C=N/NC(=O)C(=O)N/N=C/c1cc(OC)c(OC)cc1OC`, > 100 µM (inactive).
`Cc1cc(C(=O)N/N=C\c2cc(C(C)(C)C)ccc2O)n[nH]1`: the EC50 was > 100 µM (inactive).
Still for that read-out and setting: under `COc1cc(/C=N/NC(=O)C(=O)N/N=C/c2cc(OC)c(OC)c(OC)c2)cc(OC)c1OC` stands > 100 µM (inactive).
On the same count and under the same terms, under `Cn1cccc1-c1cc(C(=O)NN=Cc2cc(Br)ccc2O)[nH]n1` stands > 100 µM (inactive); under `Cc1ccc(-c2cc(C(=O)NN=Cc3ccccc3O)n[nH]2)o1`, > 100 µM (inactive).
Turning to `COc1cccc(C=NNC(=O)c2cc(-c3cccn3C)n[nH]2)c1O`, the EC50 is > 100 µM (inactive).
On the same count and under the same terms, under `COc1ccc(OC)c(/C=N/NC(=O)C(=O)N/N=C/c2cc(OC)ccc2OC)c1` stands > 100 µM (inactive).
Still for that read-out and setting: under `CCOc1cccc(C=NNC(=O)c2cc(-c3cccn3C)n[nH]2)c1O` stands > 100 µM (inactive); under `CCOc1cc(/C=N/NC(=O)C(=O)N/N=C/c2ccc(O)c(OCC)c2)ccc1O`, > 100 µM (inactive).
Turning to `COc1cc(/C=N/NC(=O)C(=O)N/N=C/c2ccc(O)c(OC)c2)ccc1O`, the EC50 was > 100 µM (inactive).
The same measure, in the same setting: under `COc1ccc(-c2cc(C(=O)NN=Cc3c(O)ccc4ccccc34)[nH]n2)cc1` stands > 100 µM (inactive).
On to `CN(C)c1ccc(/C=N/NC(=O)C(=O)N/N=C/c2ccc(N(C)C)cc2)cc1`, for which the EC50 is > 100 µM (inactive).
On the same count and under the same terms, under `O=C(NN=Cc1ccc(O)cc1O)C(=O)NN=Cc1ccc(O)cc1O` stands > 100 µM (inactive).
Consider `O=C(NN=Cc1c(O)ccc2ccccc12)c1[nH]ncc1Br`, for which the EC50 is > 100 µM (inactive).
The same measure, in the same setting: under `CC1C(=O)NN=C1C(=O)NN=Cc1ccc(O)cc1O` (stereo unspecified) stands > 100 µM (inactive).
For the compound `O=C1Nc2ccc(Br)cc2C12NNc1ccccc1O2` (stereo unspecified), the IC50 (inhibition of IAP activity) is 0.382 µM.
Consider `O=C(N/N=C/c1c(O)ccc2ccccc12)c1cc(-c2cccs2)[nH]n1`, for which the EC50 was > 100 µM (inactive).
The same measure, in the same setting: under `O=C(N/N=C/c1ccccc1O)c1n[nH]c2c1CCC2` stands > 100 µM (inactive).
Still for that read-out and setting: under `Cc1cc(C(=O)NN=Cc2cccc([N+](=O)[O-])c2O)n[nH]1` stands > 100 µM (inactive); under `O=C(N/N=C/c1ccccc1O)c1cc(C2CC2)[nH]n1`, > 100 µM (inactive).
Still for that read-out and setting: under `CC(C)C(=O)NC(=S)Nc1ccccc1C(=O)Nc1ccccc1` stands > 100 µM (inactive); under `CCCCOc1ccc(/C=N/NC(=O)C(=O)N/N=C/c2ccc(OCCCC)cc2)cc1`, > 100 µM (inactive).
On to `CC(C)Oc1ccccc1/C=N/NC(=O)C(=O)N/N=C/c1ccccc1OC(C)C`, for which the EC50 is > 100 µM (inactive).
Same read-out and setting: under `CCN(CC)c1ccc(/C=N/NC(=O)C(=O)N/N=C/c2ccc(N(CC)CC)cc2O)c(O)c1` stands > 100 µM (inactive).
Still for that read-out and setting: under `O=C(N/N=C/c1cc(Br)ccc1O)c1cc(C2CC2)[nH]n1` stands > 100 µM (inactive).
On to `O=C(NNC(=S)NC(=O)c1ccccc1[N+](=O)[O-])c1ccccc1O`, for which the EC50 is > 100 µM (inactive).
The same measure, in the same setting: under `O=C(N/N=C\c1ccc2c(c1)OCO2)C(=O)N/N=C/c1ccc2c(c1)OCO2` stands > 100 µM (inactive); under `Cc1ccc(O)c(C=NNC(=O)c2[nH]ncc2Br)c1`, > 100 µM (inactive).
`COc1ccc(/C=N/NC(=O)C(=O)N/N=C/c2ccc(OC)c(OC)c2)cc1OC`: the EC50 was > 100 µM (inactive).
Same read-out and setting: under `O=C(NN=Cc1ccccc1)C(=O)NN=Cc1ccccc1` stands > 100 µM (inactive); under `CC(=O)Nc1cccc(C(=O)NNC(=O)c2n[nH]c(=O)c3ccccc23)c1`, > 100 µM (inactive).
Same read-out and setting: under `OC(c1nc2ccc(F)cc2[nH]1)C(O)c1nc2ccc(F)cc2[nH]1` (stereo unspecified) stands > 100 µM (inactive); under `Cc1cc(C(=O)NN=Cc2cc(Cl)cc([N+](=O)[O-])c2O)n[nH]1`, > 100 µM (inactive); under `C/C(=N\NC(=O)c1[nH]nc2c1CCc1ccccc1-2)c1ccccc1O`, > 100 µM (inactive).
On the same count and under the same terms, under `O=C(CCN1C(=O)/C(=C/c2ccccc2Cl)SC1=S)NNC(=O)c1ccccc1O` stands > 100 µM (inactive); under `C/C(=N\NC(=O)c1cc(C)[nH]n1)c1ccc2ccccc2c1O`, > 100 µM (inactive).
As for `CCOc1cccc(C=NNC(=O)c2cc(C3CC3)[nH]n2)c1O`, the EC50 is > 100 µM (inactive).
On the same count and under the same terms, under `COc1cccc(C=NNC(=O)C2=NNC(=O)C2C)c1O` (stereo unspecified) stands > 100 µM (inactive).
Still for that read-out and setting: under `COc1cccc(C=NNC(=O)c2[nH]nc3c2CCc2ccccc2-3)c1O` stands > 100 µM (inactive).
On the same count and under the same terms, under `CC(=NNC(=O)C(=O)NN=C(C)c1cccc(O)c1)c1cccc(O)c1` stands > 100 µM (inactive).
For the compound `COc1cc(OC)cc(C(=O)NNC(=O)c2nn(C)c(=O)c3ccccc23)c1`, the EC50 was > 100 µM (inactive).
Same read-out and setting: under `COC(=O)c1ccc(/C=N/NC(=O)C(=O)N/N=C/c2ccc(C(=O)OC)cc2)cc1` stands > 100 µM (inactive).
As to `COc1cccc(C=NNC(=O)C(=O)NN=Cc2cccc(OC)c2OC)c1OC`, the EC50 is > 100 µM (inactive).
Take `O=C(NC(=S)NNC(=O)c1ccccc1O)c1ccc(F)cc1`: the EC50 was > 100 µM (inactive).
Same read-out and setting: under `O=C(N/N=C/c1ccc(O)cc1)C(=O)N/N=C/c1ccc(O)cc1` stands > 100 µM (inactive).
